Here are results for two substances from article PMC8578705 (Cell Reports, 2021).

One test has as its target T1, IP3R1 (HEK-IP3R1 cells) (Rattus norvegicus, UniProt P29994).
T1 construct: expressed in transfected cells
The test is described as follows: Ca2+ release from permeabilized HEK-IP3R1 cells. The settings on record: at the concentrations used (heparin 10 mg/mL, dequalinium 50 μM, 2-APB 125 μM), permeabilized HEK-IP3R1 cells. The format is cell-based. On the procedure: Fluorescence, which is approximately linearly related to ER free [Ca^2+] […] Ca^2+-free CLM comprised: 20 mM NaCl, 140 mM KCl, 1 mM EGTA, 20 mM PIPES, 2 mM MgCl2, pH 7.0. […] MgATP (1.5 mM) was added to initiate Ca^2+ uptake, and when the ER had loaded to steady state with Ca^2+ (∼150 s), ligands were added. Responses to the ligands show ER Ca^2+ contents as either time courses or, in summary results, as the Ca^2+ content recorded 20 s after addition of the stimulus. The distribution of samples across 96-well plates was varied between experiments to avoid any systematic ‘position-related’ artifacts. HEK-G-CEPIA1er cells were permeabilized and assayed as described for Mag-fluo 4-loaded cells.
For equilibrium binding and concentration-effect relationships, results from each experiment were fitted to Hill equations (PRISM) from which pIC50 (-log of half-maximal inhibitory concentration) or pEC50 (-log of half-maximally effective concentration) values were determined.

The next test has as its system SERCAs. Nature of the test: Ca2+ uptake by the intracellular stores of permeabilized HEK-IP3R1 cells. To be noted: heparin 10 mg/mL. Format: cell-based, Homo sapiens. As to the method: Figure S6. Effects of heparin, 2-APB and dequalinium on IP3Rs and Ca2+ uptake by intracellular […]
Related to Figures 5 and 6.
(A) Structures of the antagonists used.
CLM at 20 °C. Mean ± SEM, n = 3.
(C-F) Permeabilized HEK-IP3R1 cells were loaded with Ca2+, and SERCA was then inhibited with CPA (10 μM) before addition of DMSO (1% v/v; C) or dequalinium (10-100 μM, D-F), and then the indicated […]
Mean of 2 replicates, typical of 5 experiments.
(G) Summary results (mean ± SEM, n = 5, each with duplicate determinations) show Ca2+ released by […]
ER Ca2+ content was measured 20
(H-J) Similar analyses of the effects of heparin (10 mg/mL, I) or 2-APB (125 μM, J). Means of 2 replicates, typical of 3-5 experiments.
(K) Effects of dequalinium (50 μM), heparin (10 mg/mL) or 2-APB (125 μM) on Ca2+ uptake by the intracellular stores of permeabilized HEK-IP3R1 cells. Mean ± SD of 4-6 replicates, typical of 4 […]
(L) and the rate of Ca2+ uptake (M). ER Ca2+ content was measured 180 s after addition of ATP (L).
Mean ± SEM, n = 4, each with 4-6 determinations. ****P < 0.0001, ***P < 0.001, *P < 0.05 one-way ANOVA with Bonferroni's test relative to control.

Another test addresses T2, CFP-TRPML1 (Homo sapiens, UniProt Q9GZU1).
T2 construct: host or cells: HEK cells, transient transfection
Nature of the test: ER Ca2+ release from permeabilized HEK cells expressing CFP-TRPML1. The format is cell-based. From the text:
Figure 4 Neither ER reorganization nor luminal Ca^2+ mediates quantal Ca^2+ release (A) Effects of the indicated concentrations of ML-SA1 on the ER Ca^2+ content of permeabilized HEK cells expressing CFP-TRPML1. (B) Semi-logarithmic plots show mono-exponential loss of ER Ca^2+ after treatment with ML-SA1. Results (A and B) are typical of four experiments, each with duplicate determinations. Summary results are in Figure S5B. (C and D) Permeabilized DT40-IP3R1 cells were loaded to steady state with Ca^2+ before addition of thapsigargin (TG, 1 μM) to inhibit SERCAs. […] Results are typical of 29–36 experiments. […] See also Figure S5.
Incubation of cells with the acetoxymethylester (AM) of Mag-fluo 4 traps low-affinity forms of the indicator ( KdCa = 1.15 mM measured in situ) within the ER. Fluorescence, which is approximately linearly related to ER free [Ca^2+] (since [Ca^2+]ER < KdCa ), can then be used, without further calibration, to reliably report free [Ca^2+] within the ER lumen ([Rossi and Taylor, 2020]). The ER of DT40 or HEK293 cells was loaded with indicator by incubating cells with Mag-fluo 4 AM (20 μM, 60 min, 22°C) in HEPES-buffered saline (HBS: 135 mM NaCl, 5.9 mM KCl, 11.6 mM HEPES, 1.5 mM CaCl2, 11.5 mM glucose, 1.2 mM MgCl2, pH 7.3) as described ([Rossi et al., 2009]). […]

In test [1] the test system is mock-transfected HEK cells. The test is described as follows: ER Ca2+ release from permeabilized mock-transfected HEK cells. Format: cell-based, Homo sapiens. To be noted: ML-SA1 0-100 μM. On the procedure: Figure S5. Evidence that over-expressed TRPML1 releases Ca2+ from ER, and that erlin 2 does not mediate quantal Ca2+ release
Ca2+ uptake into the ER of permeabilized HEK cells was initiated by addition of ATP (1.5 mM), before adding CPA (10 μM) and then the indicated […]
concentration of ML-SA1 (0-100 μM).
(B) Summary results from experiments similar to those shown in Figure 4A show half-times (t1/2) for loss of ER Ca2+ evoked by the indicated concentrations of ML-SA1 (mean ± SEM, n = 4, each with 2 […]
(C) Addition of ATP (1.5 mM) to permeabilized HEK cells stimulates Ca2+ uptake into the ER, reported by the increase in Mag-fluo 4 fluorescence. The response is abolished by CPA (10 µM) added 60 s before ATP. Mean ± SEM, n = 4, each with 2 replicates. RFU, relative fluorescence units.
(D) Permeabilized HEK cells expressing CFP-TRPML1 were treated (60 min) with vehicle (DMSO), bafilomycin A1 (1 µM to inhibit the lysosomal H+ pump) or FCCP (10 µM to dissipate H+ gradients) before addition of ATP (1.5 mM) to initiate Ca2+ uptake. After addition of CPA (10 μM), ML-SA1 (30 µM) was added where indicated. Mean ± SD of 3 replicates. […]
(F) TIRFM images show expression of CFP-TRPML1 and EGFP-IP3R1 in HEK cells expressing both proteins, typical of 3 independent experiments (~10 cells in each). […] It was impracticable, when most CFP-TRPML1 is lysosomal, to quantify any colocalization with IP3Rs. […]

T1 sequence (P29994 1-2735 isoform P29994-2): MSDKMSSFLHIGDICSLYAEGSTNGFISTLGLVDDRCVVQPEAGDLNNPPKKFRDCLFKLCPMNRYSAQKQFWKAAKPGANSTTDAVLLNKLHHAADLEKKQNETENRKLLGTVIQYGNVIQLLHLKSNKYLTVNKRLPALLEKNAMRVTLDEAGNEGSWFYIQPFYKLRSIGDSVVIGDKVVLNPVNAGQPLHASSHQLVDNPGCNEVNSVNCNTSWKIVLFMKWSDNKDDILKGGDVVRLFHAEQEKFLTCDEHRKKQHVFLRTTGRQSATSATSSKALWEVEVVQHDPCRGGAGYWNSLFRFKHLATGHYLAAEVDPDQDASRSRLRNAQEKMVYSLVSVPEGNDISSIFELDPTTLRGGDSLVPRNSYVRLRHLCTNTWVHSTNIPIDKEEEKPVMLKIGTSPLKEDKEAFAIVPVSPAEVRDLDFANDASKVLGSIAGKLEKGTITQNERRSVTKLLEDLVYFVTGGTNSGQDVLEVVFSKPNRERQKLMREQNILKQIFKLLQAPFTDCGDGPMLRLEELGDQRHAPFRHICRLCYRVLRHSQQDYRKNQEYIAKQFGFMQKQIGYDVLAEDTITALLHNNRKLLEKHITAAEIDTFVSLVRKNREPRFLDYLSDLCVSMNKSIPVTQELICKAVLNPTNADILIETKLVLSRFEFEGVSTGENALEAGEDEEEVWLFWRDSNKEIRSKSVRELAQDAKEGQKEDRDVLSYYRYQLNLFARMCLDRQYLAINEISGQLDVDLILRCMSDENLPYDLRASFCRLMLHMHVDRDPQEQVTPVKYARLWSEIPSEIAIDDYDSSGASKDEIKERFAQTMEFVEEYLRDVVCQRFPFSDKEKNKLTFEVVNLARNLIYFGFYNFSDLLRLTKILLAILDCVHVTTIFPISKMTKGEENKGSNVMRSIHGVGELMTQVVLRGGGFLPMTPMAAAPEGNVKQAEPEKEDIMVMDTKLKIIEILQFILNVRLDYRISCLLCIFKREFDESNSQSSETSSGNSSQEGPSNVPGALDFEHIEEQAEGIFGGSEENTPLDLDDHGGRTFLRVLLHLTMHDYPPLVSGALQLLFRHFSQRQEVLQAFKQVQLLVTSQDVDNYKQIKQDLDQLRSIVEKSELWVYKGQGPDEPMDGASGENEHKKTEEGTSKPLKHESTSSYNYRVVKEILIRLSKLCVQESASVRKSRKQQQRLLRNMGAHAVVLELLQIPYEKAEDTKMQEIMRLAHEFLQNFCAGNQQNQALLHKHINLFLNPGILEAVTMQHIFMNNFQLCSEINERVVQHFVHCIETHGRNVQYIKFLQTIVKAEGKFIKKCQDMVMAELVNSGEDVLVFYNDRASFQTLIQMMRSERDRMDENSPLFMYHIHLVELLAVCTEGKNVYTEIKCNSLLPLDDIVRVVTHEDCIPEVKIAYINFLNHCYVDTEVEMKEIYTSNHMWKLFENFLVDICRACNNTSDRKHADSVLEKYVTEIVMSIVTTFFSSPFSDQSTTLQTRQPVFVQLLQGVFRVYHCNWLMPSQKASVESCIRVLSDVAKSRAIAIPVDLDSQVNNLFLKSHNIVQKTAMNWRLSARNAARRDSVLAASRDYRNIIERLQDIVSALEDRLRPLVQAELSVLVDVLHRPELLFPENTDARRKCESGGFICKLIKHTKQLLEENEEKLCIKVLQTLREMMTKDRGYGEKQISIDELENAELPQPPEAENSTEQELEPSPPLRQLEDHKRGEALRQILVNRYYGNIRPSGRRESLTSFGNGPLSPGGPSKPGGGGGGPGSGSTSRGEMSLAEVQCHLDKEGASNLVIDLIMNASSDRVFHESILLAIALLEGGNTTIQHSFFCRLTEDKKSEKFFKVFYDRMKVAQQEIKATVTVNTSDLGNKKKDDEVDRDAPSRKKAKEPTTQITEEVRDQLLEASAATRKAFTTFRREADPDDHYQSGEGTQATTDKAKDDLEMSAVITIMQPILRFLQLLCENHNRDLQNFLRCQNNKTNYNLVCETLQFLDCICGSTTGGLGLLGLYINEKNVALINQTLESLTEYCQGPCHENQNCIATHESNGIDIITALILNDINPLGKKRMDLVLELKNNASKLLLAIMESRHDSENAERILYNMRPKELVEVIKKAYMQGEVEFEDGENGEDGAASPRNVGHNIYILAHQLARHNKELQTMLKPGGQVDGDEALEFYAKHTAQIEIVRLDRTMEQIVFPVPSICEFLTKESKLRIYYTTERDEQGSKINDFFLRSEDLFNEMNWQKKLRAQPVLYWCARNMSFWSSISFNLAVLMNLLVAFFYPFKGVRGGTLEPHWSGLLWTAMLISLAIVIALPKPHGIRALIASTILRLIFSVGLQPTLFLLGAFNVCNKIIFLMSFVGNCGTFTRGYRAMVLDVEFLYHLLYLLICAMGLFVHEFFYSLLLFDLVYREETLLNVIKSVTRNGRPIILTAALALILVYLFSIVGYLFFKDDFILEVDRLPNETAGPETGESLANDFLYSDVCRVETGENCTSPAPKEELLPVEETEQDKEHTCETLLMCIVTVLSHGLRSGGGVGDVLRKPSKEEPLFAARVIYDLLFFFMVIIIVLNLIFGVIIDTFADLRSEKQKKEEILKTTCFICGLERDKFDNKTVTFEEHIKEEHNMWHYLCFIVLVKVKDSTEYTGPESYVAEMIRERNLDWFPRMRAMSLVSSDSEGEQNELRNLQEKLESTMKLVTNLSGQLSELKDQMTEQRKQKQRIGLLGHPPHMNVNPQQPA
T2 sequence (Q9GZU1 whole entry): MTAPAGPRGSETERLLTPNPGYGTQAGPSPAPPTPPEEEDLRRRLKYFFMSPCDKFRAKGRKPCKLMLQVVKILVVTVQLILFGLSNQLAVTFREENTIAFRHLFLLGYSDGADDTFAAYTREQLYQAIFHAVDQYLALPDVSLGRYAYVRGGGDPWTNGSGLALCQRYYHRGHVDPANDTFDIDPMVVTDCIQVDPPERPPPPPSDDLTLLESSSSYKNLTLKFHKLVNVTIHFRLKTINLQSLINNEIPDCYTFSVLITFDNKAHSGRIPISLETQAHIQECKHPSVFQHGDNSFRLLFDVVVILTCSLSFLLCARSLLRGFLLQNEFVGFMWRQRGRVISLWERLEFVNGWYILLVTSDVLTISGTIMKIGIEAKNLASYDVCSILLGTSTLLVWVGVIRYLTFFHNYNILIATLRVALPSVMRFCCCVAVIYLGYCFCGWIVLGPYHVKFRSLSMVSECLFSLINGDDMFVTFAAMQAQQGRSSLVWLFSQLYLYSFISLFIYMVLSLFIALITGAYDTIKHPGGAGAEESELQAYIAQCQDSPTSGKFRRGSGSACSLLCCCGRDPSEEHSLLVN

As for Heparin, sodium salt, on IP3R1 (HEK-IP3R1 cells), the “block of IP3-evoked Ca2+ release” value is “completely”. In the test with SERCAs, the “effect on SERCAs (Ca2+ uptake)” value was “partial inhibition”.

Take ML-SA1: the “Ca2+ release from the ER” value on CFP-TRPML1 is “concentration-dependent Ca^2+ release”. In test [1], the “response to ML-SA1” value is “do not respond”.
